For assay [1], the target named is T1, P2X7 (Homo sapiens, UniProt Q99572).
T1 sequence (Q99572 1-595): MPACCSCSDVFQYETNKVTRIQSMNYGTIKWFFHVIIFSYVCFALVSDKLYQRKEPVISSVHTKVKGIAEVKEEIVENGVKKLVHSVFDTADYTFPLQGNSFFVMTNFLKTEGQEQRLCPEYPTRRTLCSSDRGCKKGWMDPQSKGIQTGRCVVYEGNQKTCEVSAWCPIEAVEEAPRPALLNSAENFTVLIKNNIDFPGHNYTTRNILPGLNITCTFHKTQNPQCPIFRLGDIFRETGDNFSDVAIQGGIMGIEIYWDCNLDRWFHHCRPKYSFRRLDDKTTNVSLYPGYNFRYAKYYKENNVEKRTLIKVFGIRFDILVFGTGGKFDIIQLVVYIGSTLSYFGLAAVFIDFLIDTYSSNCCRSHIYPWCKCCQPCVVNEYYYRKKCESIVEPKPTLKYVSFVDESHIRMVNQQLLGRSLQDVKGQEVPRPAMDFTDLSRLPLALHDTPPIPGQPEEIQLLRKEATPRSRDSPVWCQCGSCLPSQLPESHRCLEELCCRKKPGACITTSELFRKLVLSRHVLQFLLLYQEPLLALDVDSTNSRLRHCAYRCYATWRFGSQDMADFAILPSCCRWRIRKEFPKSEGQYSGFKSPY
Nature of the assay: Pore permeation assay (YO PRO dye uptake, BzATP-induced). The assay is classed as cell-based. More on the design: expressed in transfected cells; host or cells: HEK293. The following applies: HEK293 transfected with human P2X7 receptor; YO PRO dye 1 uM, BzATP 10 uM; read-out: hP2X7 IC50. The protocol: Agonist-induced pore formation was determined by measuring cellular uptake of YO PRO fluorescence dye in HEK293 transfected with human P2X7 receptor. A HEK293 cell over expressing human P2X7 was harvested using HQTase reagent to detach the cells from T75 cm flask. The harvested cells are centrifuged @ 1200 rpm for 5 min at room temperature. The viability of cells was determined by Trypan blue dye and the cells are plated @ 10,000 cell/well in 50 ul volume in a 384 W BD Poly lysine coated plate and incubated overnight at 37 C. After overnight incubation, the culture medium was replaced with 35 ul/well assay buffer (5 mM KCl, 0.1 mM CaCl2, 5 mM Glucose, 10 mM HEPES buffer pH7.4 containing 125 mM NaCl. The serial dilution of compounds was performed using Bravo liquid handling instrument and the compounds were added using Bravo to the cell assay plate starting at 2.5 uM with three dilutions for 10 points. The positive control inhibitor compound was added to column 23. The plate was shaken slowly on a plate shaker for 10 seconds. The cells were incubated with the compound for 20 minutes at room temperature. After the incubation period, YO PRO dye (1 uM) along with BzATP (10 uM) were added to cells at 10 ul/well. The plate was centrifuged at 1000 rpm for 5 seconds and incubated at room temperature for 30 minutes. The uptake of YO PRO dye into the cells was measured using Envision Fluorescence plate reader instrument (Perkin Elmer).

The target in assay [2] is T1, P2X7. Nature of the assay: IL-1β release assay in THP-1 cells (sandwich ELISA). It counts as cell-based. The settings on record: PMA, LPS primed, stimulated with 0.8 mM BzATP, mature IL-1β release, read-out: hTHP-1/IL-ib IC50. On the set-up: release of mature IL-1β in the culture medium of THP-1 cells; endogenous in cells; host or cells: THP-1 cells (PMA-differentiated, LPS-primed). The procedure: The activation of P2X7 by ATP leads to a fast transient activation of cells resulting in influx of Ca^2+ followed by conversion of pro-IL-1β to active IL-1β. The functional activity of P2X7 compounds was measured by the release of mature IL-1β in the culture medium of THP-1 cells, detected by sandwich ELISA. Cells were maintained in complete growth medium (RPMI 1640+10% HI-FCS+2 mM L-glutamine+1×PS). […] THP-1 cells were harvested from the flask in 50 ml by centrifugation for 3 min at 100 g. The cells were resuspended to 2×10^5 cells/ml in medium supplemented with 0.5 μM PMA and incubated. The cells were washed and resuspended to 1.5×10^5 cells/ml in medium complemented with 10 ng/ml LPS, and the cells were primed for 4 h at 37° C., 5% CO2. After addition of 20 μL of prediluted test compounds, blank, standard and control reagents, cells were incubated for a further 20 min at 37° C. and stimulated with 0.8 mM BzATP for 30 minutes. The cells were centrifuged, supernatant was collected and the presence of mature IL-1β was detected using Dual human IL-1b kit following manufacturer's instruction. The tetrahydrobenzodiazepine analogs effectively modulated the activity of P2X7 in the cells as measured by the levels of pro-inflammatory cytokine IL-1β, which is released by the activation of P2X7 receptor.
(In an ELISA, binding on a coated surface is turned into a signal by an enzyme label.)

As for `O=C(NCC1CCC(F)(F)CC1)c1c(Cl)ccc2nc(NCCO)ccc12` [Compound 66, 6-Chloro-2-(2-hydroxy-ethylamino)-quinoline-5-carboxylic acid (4,4-difluoro-cyclohexyl methyl)-amide], the IC50 on P2X7 [1] and at P2X7 [2] was 10 to 100 nM each time.
Take `C[C@@H]1CCC[C@](O)(CNC(=O)c2c(Cl)ccc3nc(N4CCC(F)C4)ccc23)C1` (stereo partly drawn) [Compound 5, 6-Chloro-2-(3-fluoropyrrolidin-1-yl)-quinoline-5-carboxylic acid ((1R,3R)-1-hydroxy-3-methyl-cyclohexylmethyl)-amide]: the IC50 was below 10 nM at P2X7 [1] and 10 to 100 nM at P2X7 [2].
Taken in the same sequence, the figures for `O=C(NCC1CCCC(F)(F)C1)c1c(Cl)ccc2nc(N3CCC(N4CCCC4)C3)ccc12` (stereo not drawn) [Compound 34, 6-Chloro-2-(3-pyrrolidinyl-pyrrolidin-1-yl)-quinoline-5-carboxylic acid (3,3-difluoro-cyclohexylmethyl)-amide] were 10 to 100 nM and 10 to 100 nM.
Taken in the same sequence, the figures for `O=C(NCC1CCC(F)(F)CC1)c1c(Cl)ccc2nc(N3CC[C@H](CO)C3)ccc12` [Compound 29, 6-Chloro-2-((S)-3-hydroxymethyl-pyrrolidin-1-yl)-quinoline-5-carboxylic acid (4,4-difluoro-cyclohexylmethyl)-amide] were 10 to 100 nM and 10 to 100 nM.
Taken in the same sequence, the figures for `O=C(NCC1CCC(F)(F)CC1)c1c(Cl)ccc2nc(N3CC[C@H](F)C3)ccc12` [Compound 41, 6-Chloro-2-((S)-3-fluoropyrrolidin-1-yl)-quinoline-5-carboxylic acid (4,4-difluoro-cyclohexylmethyl)-amide] were 10 to 100 nM and 10 to 100 nM.
On to `C[C@@H]1CCC[C@](O)(CNC(=O)c2c(Cl)ccc3nc(N4CC[C@H](N(C)C)C4)ccc23)C1` [Compound 4, 6-Chloro-2-((S)-3-dimethylamino-pyrrolidin-1-yl)-quinoline-5-carboxylic acid ((1R,3R)-1-hydroxy-3-methyl-cyclohexylmethyl)-amide], for which the IC50 at P2X7 [1] and on P2X7 [2] was below 10 nM throughout.
For the compound `O=C(NCC1CCC(F)(F)CC1)c1c(Cl)ccc2nc(N3CC(F)(F)C3)ccc12` [Compound 74, 6-Chloro-2-(3,3-difluoro-azetidin-1-yl)-quinoline-5-carboxylic acid (4,4-difluoro-cyclohexylmethyl)-amide], the IC50 at P2X7 [1] and at P2X7 [2] was 101 to 500 nM throughout.
As for `O=C(NCC1CCC(F)(F)CC1)c1c(Cl)ccc2nc(N3CCC(CO)C3)ccc12` (stereo not drawn) [Compound 45], the IC50 at P2X7 [1] and at P2X7 [2] was 10 to 100 nM throughout.
In the case of `O=C(NCC1(O)CCC(F)(F)CC1)c1c(Cl)ccc2ncccc12` [Compound 76], the results for the IC50 on P2X7 [1] and on P2X7 [2] were 101 to 500 nM and 10 to 100 nM, respectively.
For `O=C(NCC1CCCC(F)(F)C1)c1c(Cl)ccc2nc(N3CCC(CO)C3)ccc12` (stereo not drawn) [Compound 35, 6-Chloro-2-(3-hydroxymethylpyrrolidin-1-yl)-quinoline-5-carboxylic acid (3,3-difluoro-cyclohexylmethyl)-amide], in that order: 10 to 100 nM and 10 to 100 nM.
Taken in the same sequence, the figures for `O=C(NCC1CCC(F)(F)CC1)c1c(Cl)ccc2nc(N3CC[C@@H](F)C3)ccc12` [Compound 33, 6-Chloro-2-((R)-3-fluoropyrrolidin-1-yl)-quinoline-5-carboxylic acid (4,4-difluoro-cyclohexylmethyl)-amide] were 10 to 100 nM and 101 to 500 nM.
Turning to `O=C(NCC1CCC(F)(F)CC1)c1c(Cl)ccc2nc(N3CCC(C(F)F)C3)ccc12` (stereo not drawn) [Compound 59, 6-Chloro-2-(3-difluoromethyl-pyrrolidin-1-yl)-quinoline-5-carboxylic acid (4,4-difluoro-cyclohexylmethyl)-amide], the IC50 was in the range of 10 to 100 nM on P2X7 [1] and 101 to 500 nM at P2X7 [2].
For `O=C(NCC1CCC(F)(F)CC1)c1c(Cl)ccc2nc(C3=CCOCC3)ccc12` [Compound 31, 6-Chloro-2-(3,6-dihydro-2H-pyran-4-yl)-quinoline-5-carboxylic acid (4,4-difluoro-cyclo hexyl methyl)-amide], in that order: 10 to 100 nM and 101 to 500 nM.
`O=C(NC[C@@]1(O)CCCC(F)(F)C1)c1c(Cl)ccc2nc(N3CCC(F)(F)C3)ccc12` [Compound 24, 6-Chloro-2-(3,3-difluoropyrrolidin-1-yl)-quinoline-5-carboxylic acid ((R)-3,3-difluoro-1-hydroxycyclohexylmethyl)-amide]: the IC50 at P2X7 [1] and on P2X7 [2] was 10 to 100 nM in each case.
On to `O=C(NCC1CCC(F)(F)CC1)c1c(Cl)ccc2nc(NCCCO)ccc12` [Compound 60, 6-Chloro-2-(3-hydroxy-propylamino)-quinoline-5-carboxylic acid (4,4-difluoro-cyclo hexyl methyl)-amide], for which the IC50 lay within 10 to 100 nM at P2X7 [1] and 101 to 500 nM on P2X7 [2].
For `C[C@@H]1CCC[C@](O)(CNC(=O)c2c(Cl)ccc3nc(N4CC[C@H](F)C4)ccc23)C1` [Compound 9, 6-Chloro-2-(3-(S)-fluoropyrrolidin-1-yl)-quinoline-5-carboxylic acid ((1R,3R)-1-hydroxy-3-methyl-cyclohexylmethyl)-amide], in that order: below 10 nM and 10 to 100 nM.
Taken in the same sequence, the figures for `NC1CCN(c2ccc3c(C(=O)NCC4(O)CCCC(F)(F)C4)c(Cl)ccc3n2)C1` (stereo not drawn) [Compound 32, 2-(3-Aminopyrrolidin-1-yl)-6-chloro-quinoline-5-carboxylic acid (3,3-difluoro-1-hydroxycyclohexylmethyl)-amide] were 10 to 100 nM and 10 to 100 nM.
Taken in the same sequence, the figures for `O=C(NCC1(O)CCCC(F)(F)C1)c1c(Cl)ccc2nc(N3CCC(F)C3)ccc12` (stereo not drawn) [Compound 38, 6-Chloro-2-(3-fluoropyrrolidin-1-yl)-quinoline-5-carboxylic acid (3,3-difluoro-1-hydroxycyclohexylmethyl)-amide] were 10 to 100 nM and 10 to 100 nM.
With `C[C@@H]1CCC[C@](O)(CNC(=O)c2c(Cl)ccc3nc(N4CCC(N(C)C)C4)ccc23)C1` (stereo partly drawn) [Compound 6, 6-Chloro-2-(3-dimethylamino-pyrrolidin-1-yl)-quinoline-5-carboxylic acid ((1R,3R)-1-hydroxy-3-methyl-cyclohexylmethyl)-amide], the IC50 at P2X7 [1] was below 10 nM; on P2X7 [2], 10 to 100 nM.
Taken in the same sequence, the figures for `O=C(NCC1CCC(F)(F)CC1)c1c(Cl)ccc2nc(C#CCO)ccc12` [Compound 19, 6-Chloro-2-(3-hydroxy-prop-1-ynyl)-quinoline-5-carboxylic acid (4,4-difluoro-cyclo hexylmethyl)-amide] were below 10 nM and 10 to 100 nM.
Taken in the same sequence, the figures for `CN(CCO)c1ccc2c(C(=O)NCC3CCC(F)(F)CC3)c(Cl)ccc2n1` [Compound 73] were 10 to 100 nM and 101 to 500 nM.

(Values after US9399623B2, “Quinoline derivatives and their use in neurodegenerative diseases” (Merck Patent GmbH, priority 2014, dated 2016).)
